Data reported in a melting point compilation (Tetko et al.; mined from patent text by program, amines drawn as free bases though some values may be those of a salt).

Row | melting point | SMILES
1 | 112 °C | COC(=O)C(=O)c1cc[nH]c1
2 | 177 to 178 °C | NC(=O)c1c(Cl)c(-c2ccccc2)n2c1CN(S(=O)(=O)c1ccc(F)cc1)CC2
3 | 83 to 84 °C | COC(=O)[C@H](CC(=O)OC(C)(C)C)NC(=O)c1cccc(NC(=O)c2ccc(C#N)cc2)c1
4 | 191 °C | NCc1cn(CCC(=O)O)c(=S)n1[C@H]1CCc2c(F)cc(F)cc2C1
5 | 157 to 158 °C | CCOC(=O)C1(N)C=CNN1c1cc(Cl)cc(Cl)c1 (stereo not drawn)
6 | 207 to 208 °C | CCc1c(C(=O)O)nn(-c2ccc(Cl)cc2Cl)c1-c1ccc(Cl)s1
7 | 253 to 256 °C | O=C(O)C(=O)Nc1ccc2c(=O)c3c(oc2c1)C(=Cc1ccccc1)CC3
8 | 140 to 142 °C | CC(C)(C)NC(=O)C1CCN(C(=O)CCl)CC1
9 | 76 to 78 °C | CCOC(=O)N1Cc2cccc3c2c(cn3C)C1
10 | 78 to 80 °C | O=C(NCCCCCCCCF)N1CCC(Nc2ccc(CCNC[C@H](O)COc3ccc(O)cc3)cc2)CC1
11 | 116 to 118 °C | CN1CCCC1=C(C#N)c1ccc(N)cc1
12 | 135 to 137 °C | CC(=CC#Cc1ccccc1)C(=O)NCCCCCC(=O)NO
13 | 150 °C | COCCOc1cc(C(O)C#Cc2ccc(C(=O)O)cc2)cc2c1C(C)(C)CCC2(C)C (stereo not drawn)
14 | 53 to 54 °C | Cc1cccc(COCCCC(=O)O)c1
15 | 158 to 161 °C | CC(CS(=O)(=O)c1ccccc1)C1CCC2C3CC=C4CC(O)CCC4(C)C3CCC12C (stereo not drawn)
16 | 109 to 111 °C | COc1cccc(N2CCN(C(=O)Oc3ccc(Oc4ccc(C(F)(F)F)cn4)cc3)CC2)c1
17 | 138 to 139 °C | C=CCOC(=O)c1ccc(OC(=O)c2ccc(OC)c(C34CC5CC(CC(C5)C3)C4)c2)c(C)c1
18 | 200 to 204 °C | COc1cc2cnnc(N3CCC(CCN(C)C(=O)Nc4cccnc4)CC3)c2cc1OC
19 | 223 to 224 °C | CC1(C)CCc2c(N3CCOCC3)nc3sc4c(NCCc5c[nH]cn5)ncnc4c3c2C1
20 | 196 to 198 °C | CCCc1nc2c(c(C)c(C)n3nnnc23)n1CC(C)(C)NC(=O)NC1CCCCC1
21 | 215 to 217 °C | CCCC(=O)c1cnc2c(OC)cccc2c1Nc1ccccc1C
22 | 252 °C | Cc1nn(CC(=O)c2ccc(Cl)cc2)c(=O)n1-c1ccc(N2CCN(c3ccc(O)cc3)CC2)cc1
23 | 97 °C | C=CCOC(=O)c1c(Cl)c(OC)cc(O[Si](C)(C)C(C)(C)C(C)C)c1C=O
24 | 79 to 81.5 °C | CCc1ccccc1NC(=O)C(C#N)=C(C)N(C)C
25 | 242 to 244 °C | CCSc1nc2c(cc1F)c(=O)c(C(=O)O)cn2C1CC1
26 | 211 to 213 °C | O=C(c1[nH]c2ccccc2c1Sc1ccccn1)N1CCCC1
27 | 273 to 275 °C | CCOC(=O)CC[C@H](NC(=O)c1ccc(C(=Cc2cnc3nc(NC(=O)C(C)(C)C)nc(O)c3c2)COC2CCCCO2)cc1)C(=O)OCC (stereo partly drawn)
28 | 100 °C | COC(=O)CCCSc1c2c(=O)n(C)c(=O)n(CC(C)C)c2nn1Cc1cccc2ccccc12
29 | 118 °C | O=c1c2ccccc2c(-c2ccccc2)cn1CCCN1CCCCC1

Continued, compound first:

Row | SMILES | melting point
30 | CC(C)Cn1nc(-c2ccc(C(F)(F)F)cc2)cc(COS(C)(=O)=O)c1=O | 123 to 124 °C
31 | Cc1ccc(Cc2c(C(F)(F)F)[nH][nH]c2=O)cc1 | 150 to 152 °C
32 | CSC1Oc2cc3ccccc3cc2C1=O (stereo not drawn) | 118 to 120 °C
33 | COC(=O)c1cc(OC)cc(-c2ccc(N(C)C)cc2)n1 | 157 to 158 °C
34 | CCN(CC)c1nc(N)c(SC)c(Cl)n1 | 68 °C
35 | CNc1cc(NS(=O)(=O)c2cccc(C(F)(F)F)c2)nc(NC)n1 | 234 to 235 °C
36 | CCOC(=O)CCc1ccc(SCc2coc(/C=C/c3ccccc3)n2)cc1 | 77 to 78 °C
37 | CCCN=C(N)Nc1ccnc(CCCCc2ncc(CC)c(O)n2)n1 | 140 to 142 °C
38 | CNS(=O)(=O)c1ccccc1C | 62 to 64 °C
39 | Cc1cc(C)n(-c2ncc(C)c(Nc3ccc(Cl)cc3)n2)n1 | 179 to 182 °C
40 | CCCCCCCCCCc1ccc(C(=O)O[C@@H]2CC[C@H](NC(=O)[C@H](OC)[C@H](O)[C@@H](O)[C@H](O)/C=C/C(C)(C)C)C(=O)NC2)cc1 | 60 to 64 °C
41 | Cc1ccc(Cc2cnc(NCCCNc3ncc(Cl)cc3Cl)[nH]c2=O)cn1 | 147 to 148 °C
42 | O=C1C=C(c2ccc[nH]2)C(=O)c2ccccc21 | 155 to 158 °C
43 | c1ccc(-c2csc(CN3CCN(c4ccccc4)CC3)n2)cc1 | 142 to 143 °C
44 | Cc1nc(=O)[nH]c2c(-c3ccccc3)[nH]c(C)c12 | 290 to 294 °C
45 | COCCN(CCOC)c1nc2cc(-c3ccc(OC)cc3)nnc2c2ccccc12 | 127 to 128 °C
46 | O=CCOc1ccccc1OCC(F)(F)F | 55.3 to 57.5 °C
47 | CCOC(=O)c1ccc2c(c1)OC(CCCBr)C(=O)N2 (stereo not drawn) | 118 to 119 °C
48 | CCOC(=O)c1ncc2[nH]c3ccccc3c2c1C | 235 to 239 °C
49 | N#CCCNC(=O)C1=CC(CF)(CF)Oc2ccc(C(F)(F)C(F)(F)C(F)(F)C(F)(F)F)cc21 | 85 to 86 °C
50 | CCc1coc2c(-c3ccc(F)cc3)c(-c3ccc(S(C)(=O)=O)cc3)nn12 | 177 to 179 °C
51 | N#Cc1nn(-c2c(Cl)cc(C(F)(F)F)cc2Cl)c(N2CCOCC2)c1S(=O)(=O)C(F)(F)F | 167 to 169 °C

Row | SMILES | melting point
52 | C[Si](C)(C)COc1cc([N+](=O)[O-])ccc1N | 87 °C
53 | O=C1c2ccccc2C(=O)c2c1cc(CBr)c1c2CCC1 | 225 to 230 °C
54 | COc1ccc(-n2nc(C(F)F)cc2-c2ccc(S(C)(=O)=O)cc2)cc1Cl | 169 to 171 °C
55 | Cc1cccc([N+](=O)[O-])c1CO | 67 to 68 °C
56 | CSC1=NC(C)C(c2ccccc2)=NN1 (stereo not drawn) | 159 to 160 °C
57 | N#Cc1ccc(CC(NC(=O)OCc2ccccc2)C(=O)NCC(=O)NCCC(=O)OCc2ccccc2)cc1 (racemic) | 134 to 135 °C
58 | O=Cc1ccc(OCCBr)c2ccccc12 | 83 to 84 °C
59 | COc1cccc2c1Cc1ccccc1C2(CCO)CCO | 164 to 167 °C
60 | O=C(O)COc1cc2onc(-c3ccccc3F)c2cc1Cl | 214 to 215 °C
61 | CC(C)[C@H](COc1ccccc1)Nc1nc(Cl)nc2c1ncn2[C@@H]1O[C@H](CO)[C@@H](O)[C@H]1O | 95 to 100 °C
62 | Nc1cccc(SC2SCC(O)C(O)C2O)c1 (stereo not drawn) | 128 to 132 °C
63 | CSCc1cnc2c(C)cccc2c1O | 226 to 228 °C
64 | CNC(=O)Nc1ccccc1 | 149 to 150 °C
65 | Cc1ccccc1-n1ccnc1SCCCO | 47 to 48 °C
66 | Cn1c(C(F)(F)F)cc(=O)n(-c2ccc(OCc3ccc(Cl)cc3)cc2F)c1=O | 134 to 135 °C
67 | COc1ccc2c3c1OC1C(O)C(C)(C)CC4C(C2)N(C)CCC341 (stereo not drawn) | > 265 °C
68 | N#Cc1cc2c(-c3cccc(NC(=O)c4cccc(C(F)(F)F)c4)c3)ncnc2s1 | 210 to 212 °C
69 | FC(F)COc1cc(NC2=NCC3(CN4CCC3CC4)O2)ncn1 (stereo not drawn) | 83 to 88 °C
70 | Cc1nnc(NC(=O)C(c2ccccc2)c2ccccc2)o1 | 160 to 161 °C
71 | CC(C(=O)O)c1ccc2c(c1)CCc1cccnc1S2 (stereo not drawn) | 181 to 183 °C
72 | Cc1cc(CCCCCCCOc2ccc(C(=O)O)cc2)on1 | 129 to 130 °C
73 | CCN(CCNC(=O)c1cnc2cc(I)ccc2n1)CCNc1cccc(Br)n1 | 49 to 51 °C
